Data on ten compounds can be found in patent EP1501514B1, “PROTEIN KINASE MODULATORS AND METHODS OF USE” (Exelixis, Inc., priority 2002, dated 2003).

pIC50: −log10 of the molar value.

By pIC50 is commonly meant the IC50 on a negative log10 scale, so that one unit is a factor of ten. A lower pIC50 goes with a high IC50.

One experiment deals with T1, Chk1 (Homo sapiens, UniProt O14757).
T1 construct: purchased Upstate Biotechnology
T1 sequence (O14757 1-476): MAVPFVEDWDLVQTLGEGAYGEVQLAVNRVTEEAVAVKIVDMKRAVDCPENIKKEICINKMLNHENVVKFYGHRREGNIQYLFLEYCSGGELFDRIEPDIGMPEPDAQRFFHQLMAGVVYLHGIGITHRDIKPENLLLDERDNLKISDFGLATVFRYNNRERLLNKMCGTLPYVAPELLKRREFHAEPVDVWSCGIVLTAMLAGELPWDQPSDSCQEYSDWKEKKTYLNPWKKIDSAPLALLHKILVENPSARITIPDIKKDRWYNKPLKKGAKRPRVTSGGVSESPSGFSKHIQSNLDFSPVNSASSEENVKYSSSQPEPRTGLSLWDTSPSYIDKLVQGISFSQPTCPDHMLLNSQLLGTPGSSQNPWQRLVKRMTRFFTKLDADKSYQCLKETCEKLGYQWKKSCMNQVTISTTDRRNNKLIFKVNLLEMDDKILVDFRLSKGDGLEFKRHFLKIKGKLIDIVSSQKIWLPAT
The experiment in a line: Chk1 assay: incorporation of γ-33P ATP into immobilized myelin basic protein.
Settings: not given
Type of experiment: biochemical. The procedure:
Chk1 and Chk2 assays were performed by measuring incorporation of γ-^33P ATP into immobilized myelin basic protein (MBP). High binding white 384 well plates (Greiner) were coated with MBP (Sigma #M-1891) by incubation of 60ul/well of 20µg/ml MBP in Tris-buffered saline (TBS; 50mM Tris pH 8.0, 138mM NaCl, 2.7mM KCl) for 24 hours at 4° C. Plates were washed 3X with 100µl TBS. Kinase reactions were carried out in a total volume of 34µl in kinase buffer (5mM Hepes pH 7.6, 15mM NaCl, 0.01% bovine gamma globulin (Sigma #I-5506), 10mM MgCl2, 1mM DTT, 0.02% TritonX-100). Compound dilutions were performed in DMSO and added to assay wells to a final DMSO concentration of 1%. Each data point was measured in duplicate, and at least two duplicate assays were performed for each individual compound determination. Chkl and Chk2 enzymes (Upstate Biotechnology) were added to final concentrations of 10nM (Chkl) or 20nM (Chk2). A mixture of unlabeled ATP and γ-^33P ATP was added to start the reaction (2x10^6 cpm of γ-^33P ATP per well (3000Ci/mmole) and either 10µM or 30µM unlabeled ATP (for Chkl and Chk2 assays respectively). The reaction was carried out for 1 hour at room temperature with shaking. Plates were washed 7x with TBS, followed by the addition of 50µl/well scintillation fluid (Wallac). Plates were read using a Wallac Trilux counter. This is only one format of such assays, various other formats are possible, as known to those skilled in the art.
The above assay procedure can be used to determine the IC50 for inhibition and/or the inhibition constant Ki. The IC50 is defined as the concentration of compound required to reduce the enzyme activity by 50% under the conditions of the assay. […] The Ki for a compound may be determined from the IC50 based on three assumptions. First, only one compound molecule binds to the enzyme and there is no cooperativity. […] Third, the enzymatic rate of the enzyme-inhibitor complex is zero. The rate (i.e., compound concentration) data are fitted to the equation: V = Vmax E0 [I-((E0+I0+Kd)-sqrt(((E0+I0+Kd))^2 -4E0 I0))/(2E0)] [formula]
`Nc1ncc(-c2cccc(C(=O)NCc3ccc(-c4cccs4)cc3)c2)nc1C(=O)N[C@H]1CCCNC1` [compound 854, 3-amino-N-[(3S)-piperidin-3-yl]-6-{3-[({[4-(2-thienyl)phenyl]methyl}amino)carbonyl]phenyl}pyrazine-2-carboxamide] showed a pIC50 of over 7.30.

Compound `Cc1ccc(C(=O)Nc2cccc(-c3cnc(N)c(C(=O)N[C@H]4CCCNC4)n3)c2)cn1` [compound 978, 3-amino-6-(3-{[(6-methylpyridin-3-yl)carbonyl]amino}phenyl)-N-[(3S)-piperidin-3-yl]pyrazine-2-carboxamide] showed a pIC50 of over 7.30. Compound `Nc1ncc(-c2cccc(C(=O)NCc3cc(C(F)(F)F)ccc3Cl)c2)nc1C(=O)N[C@H]1CCCNC1` [compound 994, 3-amino-6-{3-[({[2-chloro-5-(trifluoromethyl)phenyl]methyl}amino)carbonyl]phenyl}-N-[(3S)-piperidin-3-yl]pyrazine-2-carboxamide] showed a pIC50 of over 7.30. In turn, `Nc1ncc(-c2cccc(C(=O)NCc3ccc(C(F)(F)F)cc3F)c2)nc1C(=O)N[C@H]1CCCNC1` [compound 1001, 3-amino-6-{3-[({[2-fluoro-4-(trifluoromethyl)phenyl]methyl}amino)carbonyl]phenyl}-N-[(3S)-piperidin-3-yl]pyrazine-2-carboxamide] had a negative-log IC50 (pIC50) of over 7.30. `Nc1ncc(-c2cccc(C(=O)NCc3ccc(F)c(Cl)c3)c2)nc1C(=O)N[C@H]1CCCNC1` [compound 1006, 3-amino-6-[3-({[(3-chloro-4-fluorophenyl)methyl]amino}carbonyl)phenyl]-N-[(3S)-piperidin-3-yl]pyrazine-2-carboxamide] gave a pIC50 of over 7.30.

The same experiment, now with this note: Table 11; inhibition given as IC50 class symbol.
On to `N=C(NNc1ccccc1)c1nc(-c2cccc(C(=O)N[C@H]3CCc4ccccc43)c2)cnc1N` [compound 720, 3-{5-amino-6-[imino(2-phenylhydrazino)methyl]pyrazin-2-yl}-N-[(1S)-2,3-dihydro-1H-inden-1-yl]benzamide], for which the pIC50 was under 5.00. In turn, `CC(C)(C)OC(=O)N1CC[C@H](NC(=O)c2nc(-c3cccc(C(=O)NCc4ccc(Cl)cc4)c3)cnc2N)C1` [compound 756, 1,1-dimethylethyl (3S)-3-[({3-amino-6-[3-({[(4-chlorophenyl)methyl]amino}carbonyl)phenyl]pyrazin-2-yl}carbonyl)amino]pyrrolidine-1-carboxylate] showed a negative logarithm of the IC50 (pIC50) of 6.00 to 7.30. The compound `Nc1ncc(-c2cccc(C(=O)NCc3cccnc3)c2)nc1C(=O)N[C@H]1CCNC1` [compound 762, 3-amino-6-(3-{[(pyridin-3-ylmethyl)amino]carbonyl}phenyl)-N-[(3S)-pyrrolidin-3-yl]pyrazine-2-carboxamide] had a pIC50 of 6.00 to 7.30. Consider `Nc1ncc(-c2cccc(C(=O)N[C@H]3CCc4ccccc43)c2)nc1C(=O)N[C@H]1CCCNC1` [compound 764, 3-amino-6-(3-{[(1S)-2,3-dihydro-1H-inden-1-ylamino]carbonyl}phenyl)-N-[(3S)-piperidin-3-yl]pyrazine-2-carboxamide], for which the pIC50 is over 7.30. For the compound `CC(C)(C)OC(=O)N1CC[C@H](CNC(=O)c2nc(-c3cccc(C(=O)N[C@H]4CCc5ccccc54)c3)cnc2N)C1` [compound 784, 1,1-dimethylethyl (3R)-3-[({[3-amino-6-(3-{[(1S)-2,3-dihydro-1H-inden-1-ylamino]carbonyl}phenyl)pyrazin-2-yl]carbonyl}amino)methyl]pyrrolidine-1-carboxylate], the pIC50 is under 5.00.
